Read-outs that look alike come from different tables or passages of the source.

This test addresses T1, human α7 nAChR (Homo sapiens, UniProt P36544).
T1 construct: host or cells: HEK
As to the kind of experiment: Automated patch-clamp electrophysiology functional assay (Assay A). As to conditions: HEK cell line stably expressing human RIC-3 and human α7, IonFlux HT whole-cell population patch, with or without 40 μM acetylcholine. In kind it is cell-based. Here is the method:
The α7 nAChR positive allosteric modulator (PAM) activity of the present compounds may be tested using assays known in the art. The α7 nAChR PAMs described herein have activities in an automated patch-clamp electrophysiology functional assay as described in the examples. The assay was performed using the IonFlux HT in a whole-cell, population patch configuration. See Golden et al. Assay Drug Dev. Technol. (2011) 9:608-619. The compounds were assessed for their ability to modulate the function of the human α7 nAChR stably expressed in a HEK cell line both in the presence, and in the absence of the natural α7 agonist acetylcholine. By performing a series of such measurements at different concentrations, the effective concentration of the α7 nAChR PAMs (EC50) was determined. See Spencer et al. Assay Drug Dev. Technol. (2012) 10:313-324.
Direct activation of α7 (agonism), and potentiation of acetylcholine-evoked α7 currents was determined as follows:
Automated patch-clamp electrophysiology was performed using the IonFlux HT (Fluxion Biosciences Inc., San Francisco, CA) in the whole-cell, population patch configuration. Test compounds were assessed for their ability to modulate the function of the α7 nicotinic acetylcholine receptor both in the presence, and in the absence of the natural α7 agonist acetylcholine. A HEK cell line stably expressing both human RIC-3 and human α7 (PrecisION hnAChR α7/RIC-3, Eurofins Pharma, St. Charles, MO) was cultured in 175 cm^2 triple-layer tissue culture flasks to no more than 90% confluency in DMEM/F-12 growth media supplemented with 10% heat-inactivated fetal bovine serum, 1% non-essential amino acids, 0.625 μg/mL Puromycin, and 400 μg/mL Geneticin. Immediately prior to assay, cells were detached by first aspirating growth media, rinsing with Dulbecco's phosphate buffered saline, and then adding 10 mL of Accutase (Innovative Cell Technologies, San Diego, CA) to the flask and then incubating at 37° C. for 5 minutes. Detached cells were then recovered by the addition of 40 mL of CHO-serum-free media supplemented with 25 mM HEPES, and rocked gently in a 50 mL conical tube for 20 minutes prior to patch-clamp assay. After recovery, cells were pelleted by centrifugation at 1,000 RPM for 1 minute in a compact bench top centrifuge; recovery media was aspirated and cells were resuspended in external recording solution (150 mM NaCl, 5 mM KCl, 2 mM CaCl2, 1 mM MgCl2, 10 mM HEPES, 12 mM dextrose) to a density of 5.0×10^6 cells/mL. The cell suspension was added to the cell inlet wells on an IonFlux HT population patch plate which had previously been rinsed and primed with deionized H2O. Test compounds were serially diluted in DMSO and then resuspended to the final test concentration in external recording solution, with, or without 40 μM acetylcholine added to the external recording solution; test compounds were then transferred to the IonFlux HT population patch plate. Internal recording solution (110 mM TrisPO4, 28 mM TrisBase, 0.1 mM CaCl2, 2 mM MgCl2, 11 mM EGTA, 4 mM MgATP) was added to the internal recording solution inlet wells on the IonFlux HT patch plate previously loaded with cells and test compounds, and the plate loaded into the IonFlux HT instrument. A protocol was executed on the IonFlux HT to trap the cells, break into the cells, and establish the whole-cell recording configuration; cells were voltage-clamped at a holding potential of −60 mV for the duration of the experiment, all experiments were conducted at room temperature, and the IonFlux HT injection pressure was 8 psi for solution applications. Upon establishing the whole-cell configuration, external recording solution was perfused into the recording chambers for 120 seconds and then 40 μM acetylcholine was applied for 1 second and immediately washed off with external recording solution for 60 seconds. […]
A general note: Patch clamp records ionic current or voltage across a cell membrane.

T1 sequence (P36544 23-502): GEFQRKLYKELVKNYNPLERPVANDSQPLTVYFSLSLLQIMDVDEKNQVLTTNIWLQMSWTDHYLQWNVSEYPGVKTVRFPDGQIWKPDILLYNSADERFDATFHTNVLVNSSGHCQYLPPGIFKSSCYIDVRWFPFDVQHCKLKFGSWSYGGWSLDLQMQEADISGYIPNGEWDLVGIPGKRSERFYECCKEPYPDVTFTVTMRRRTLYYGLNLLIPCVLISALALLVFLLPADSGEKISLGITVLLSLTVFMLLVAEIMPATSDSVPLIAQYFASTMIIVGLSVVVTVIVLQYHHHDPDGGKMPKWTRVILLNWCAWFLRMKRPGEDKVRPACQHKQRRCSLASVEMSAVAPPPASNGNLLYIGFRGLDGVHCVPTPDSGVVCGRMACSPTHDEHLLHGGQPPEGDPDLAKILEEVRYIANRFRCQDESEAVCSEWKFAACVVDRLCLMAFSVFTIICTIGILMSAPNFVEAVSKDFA

For the molecule `COc1ccc(Cl)cc1NC(=O)[C@@H]1C(F)(F)C12CCN(S(N)(=O)=O)CC2` [Example 15, (1R)—N-(5-Chloro-2-methoxyphenyl)-2,2-difluoro-6-sulfamoyl-6-azaspiro[2.5]octane-1-carboxamide], the EC50 is 63 nM (read-out: α7 nAChR EC50) and ≤ 100 nM (read-out: α7 nAChR Potency).
The like results for `NS(=O)(=O)N1CCC2(CC1)C[C@H]2COCc1cccc(OCC(F)(F)F)n1` [Example 9, (1R)-1-({[6-(2,2,2-Trifluoroethoxy)pyridin-2-yl]methoxy}methyl)-6-azaspiro[2.5]octane-6-sulfonamide] were, in that order, 1200 nM and 500 to 5000 nM.
Taken in the same sequence, the figures for `NS(=O)(=O)N1CCC2(CC1)CC2COc1cccc(OC(F)F)c1` (racemic) [Example A23, 1-{[3-(difluoromethoxy)phenoxy]methyl}-6-azaspiro[2.5]octane-6-sulfonamide] were 150 nM and 100 to 500 nM.
Taken in the same sequence, the figures for `NS(=O)(=O)N1CCC2(CC1)CC2COc1ccnc(OC(F)F)c1` (stereo not drawn) [Example 1, 1-({[2-(Difluoromethoxy)pyridin-4-yl]oxy}methyl)-6-azaspiro[2.5]octane-6-sulfonamide] were 730 nM and 500 to 5000 nM.
Consider `NS(=O)(=O)N1CCC2(CC1)C[C@H]2COc1cccc(-c2ccncc2)n1` [Example A58, (1R)-1-[(2,4′-bipyridin-6-yloxy)methyl]-6-azaspiro[2.5]octane-6-sulfonamide], for which, for the setting “read-out: α7 nAChR Potency”, the EC50 lay in the range of 500 to 5000 nM.
Consider `NS(=O)(=O)N1CCC2(CC1)CC2COc1ccccc1OC(F)F` (single isomer, unassigned) [Example A9, 1-{[2-(difluoromethoxy)phenoxy]methyl}-6-azaspiro[2.5]octane-6-sulfonamide], for which the EC50 (read-out: α7 nAChR EC50) is 650 nM and the EC50 (read-out: α7 nAChR Potency) lay within 500 to 5000 nM.
Taken in the same sequence, the figures for `CC(C)(O)c1cccc(OC[C@@H]2CC23CCN(S(N)(=O)=O)CC3)n1` [Example A52, (1R)-1-({[6-(2-hydroxypropan-2-yl)pyridin-2-yl]oxy}methyl)-6-azaspiro[2.5]octane-6-sulfonamide] were 480 nM and 100 to 500 nM.
The like results for `COc1ccc(Cl)cc1OCC1C(F)(F)C12CCN(S(N)(=O)=O)CC2` (single isomer, unassigned) [Example A2, 2-[(5-chloro-2-methoxyphenoxy)methyl]-1,1-difluoro-6-azaspiro[2.5]octane-6-sulfonamide] were, in that order, 25 nM and ≤ 100 nM.
The like results for `Cn1nc(C(F)(F)F)cc1OCC1C(F)(F)C12CCN(S(N)(=O)=O)CC2` (single isomer, unassigned) [Example A12, 1,1-difluoro-2-({[1-methyl-3-(trifluoromethyl)-1H-pyrazol-5-yl]oxy}methyl)-6-azaspiro[2.5]octane-6-sulfonamide] were, in that order, 4200 nM and 500 to 5000 nM.
For the molecule `NS(=O)(=O)N1CCC2(CC1)C[C@H]2COc1cccc(N2CCOCC2)n1` [Example 16, (1R)-1-({[6-(Morpholin-4-yl)pyridin-2-yl]oxy}methyl)-6-azaspiro[2.5]octane-6-sulfonamide], the EC50 was 100 nM (read-out: α7 nAChR EC50) and 100 to 500 nM (read-out: α7 nAChR Potency).
Taken in the same sequence, the figures for `NS(=O)(=O)N1CCC2(CC1)C(COc1cc(F)ccc1C(F)(F)F)C2(F)F` (single isomer, unassigned) [Example A8, 1,1-difluoro-2-{[5-fluoro-2-(trifluoromethyl)phenoxy]methyl}-6-azaspiro[2.5]octane-6-sulfonamide] were 89 nM and ≤ 100 nM.
As to `NS(=O)(=O)N1CCC2(CC1)C[C@H]2COc1cccc(OCC2CC2)n1` [Example A17, (1R)-1-({[6-(cyclopropylmethoxy)pyridin-2-yl]oxy}methyl)-6-azaspiro[2.5]octane-6-sulfonamide], the EC50 by setting is: (read-out: α7 nAChR EC50) 130 nM; (read-out: α7 nAChR Potency) 100 to 500 nM.
Taken in the same sequence, the figures for `NS(=O)(=O)N1CCC2(CC1)C(CSc1ccc(F)cc1C(F)(F)F)C2(F)F` (stereo not drawn) [Example 17, 1,1-Difluoro-2-({[4-fluoro-2-(trifluoromethyl)phenyl]sulfanyl}methyl)-6-azaspiro[2.5]octane-6-sulfonamide] were 720 nM and 500 to 5000 nM.
The like results for `NS(=O)(=O)N1CCC2(CC1)CC2COc1ccc(F)cc1C(F)(F)F` (single isomer, unassigned) [Example A7, 1-{[4-fluoro-2-(trifluoromethyl)phenoxy]methyl}-6-azaspiro[2.5]octane-6-sulfonamide] were, in that order, 1200 nM and 500 to 5000 nM.
Taken in the same sequence, the figures for `NS(=O)(=O)N1CCC2(CC1)C(COc1ccnc(OC(F)F)c1)C2(F)F` (single isomer, unassigned) [Example 3, 2-({[2-(Difluoromethoxy)pyridin-4-yl]oxy}methyl)-1,1-difluoro-6-azaspiro[2.5]octane-6-sulfonamide] were 930 nM and 500 to 5000 nM.
As to `NS(=O)(=O)N1CCC2(CC1)C[C@H]2COc1cccc(OCC(F)(F)F)n1` [Example A37, (1R)-1-({[6-(2,2,2-trifluoroethoxy)pyridin-2-yl]oxy}methyl)-6-azaspiro[2.5]octane-6-sulfonamide], the EC50 runs as follows: (read-out: α7 nAChR EC50) 74 nM; (read-out: α7 nAChR Potency) ≤ 100 nM.
Taken in the same sequence, the figures for `CCOc1cccc(OC[C@@H]2CC23CCN(S(N)(=O)=O)CC3)n1` [Example A54, (1R)-1-{[(6-ethoxypyridin-2-yl)oxy]methyl}-6-azaspiro[2.5]octane-6-sulfonamide] were 450 nM and 100 to 500 nM.
Taken in the same sequence, the figures for `NS(=O)(=O)N1CCC2(CC1)CC2COc1ccnc(OCC(F)(F)F)c1` (racemic) [Example A32, 1-({[2-(2,2,2-trifluoroethoxy)pyridin-4-yl]oxy}methyl)-6-azaspiro[2.5]octane-6-sulfonamide] were 140 nM and 100 to 500 nM.
Taken in the same sequence, the figures for `NS(=O)(=O)N1CCC2(CC1)C[C@H]2COc1cccc(-c2ccccc2)n1` [Example A57, (1R)-1-{[(6-phenylpyridin-2-yl)oxy]methyl}-6-azaspiro[2.5]octane-6-sulfonamide] were 69 nM and ≤ 100 nM.
On to `NS(=O)(=O)N1CCC2(CC1)C(COc1cccnc1OCC(F)(F)F)C2(F)F` (single isomer, unassigned) [Example A35, 1,1-difluoro-2-({[2-(2,2,2-trifluoroethoxy)pyridin-3-yl]oxy}methyl)-6-azaspiro[2.5]octane-6-sulfonamide], for which the EC50 (read-out: α7 nAChR EC50) came to 540 nM and the EC50 (read-out: α7 nAChR Potency) fell in the range of 500 to 5000 nM.
Taken in the same sequence, the figures for `NS(=O)(=O)N1CCC2(CC1)C(COc1ccnc(OCC(F)(F)F)c1)C2(F)F` (single isomer, unassigned) [Example A33, 1,1-difluoro-2-({[2-(2,2,2-trifluoroethoxy)pyridin-4-yl]oxy}methyl)-6-azaspiro[2.5]octane-6-sulfonamide] were 20 nM and ≤ 100 nM.
Taken in the same sequence, the figures for `COc1ccc(Cl)cc1S(=O)(=O)C[C@@H]1CC12CCN(S(N)(=O)=O)CC2` [Example 12, (1R)-1-{[(5-Chloro-2-methoxyphenyl)sulfonyl]methyl}-6-azaspiro[2.5]octane-6-sulfonamide] were 1600 nM and 500 to 5000 nM.
As for `COc1cc(OC[C@H]2CC23CCN(S(N)(=O)=O)CC3)nc(OCC(F)(F)F)c1` [Example A16, (1S)-1-({[4-methoxy-6-(2,2,2-trifluoroethoxy)pyridin-2-yl]oxy}methyl)-6-azaspiro[2.5]octane-6-sulfonamide], the EC50 (read-out: α7 nAChR EC50) turned out to be 190 nM and the EC50 (read-out: α7 nAChR Potency) was in the range of 100 to 500 nM.

The values are drawn from patent publication US12331022B2, “Spiropiperidine allosteric modulators of nicotinic acetylcholine receptors” (Merck Sharp & Dohme LLC, priority 2019, dated 2025).
